Test results from publication PMC4348537, “Discovery of Novel New Delhi Metallo-β-Lactamases-1 Inhibitors by Multistep Virtual Screening” (PLoS ONE, 2015).

Tests used:
[1] = biological target: T1, NDM-1 (New Delhi metallo-β-lactamase-1) (Klebsiella pneumoniae, UniProt C7C422); test: nitrocefin hydrolysis assay with purified enzyme, dose-response; similar with […] Triton X-100; format: biochemical
T1 construct: gene blaNDM-1

[2] = biological target: T1, NDM-1 (New Delhi metallo-β-lactamase-1); test: steady-state hydrolysis kinetics at […] nm, Km by Lineweaver-Burk plot; format: biochemical

T1 sequence (C7C422 29-270 limits assumed): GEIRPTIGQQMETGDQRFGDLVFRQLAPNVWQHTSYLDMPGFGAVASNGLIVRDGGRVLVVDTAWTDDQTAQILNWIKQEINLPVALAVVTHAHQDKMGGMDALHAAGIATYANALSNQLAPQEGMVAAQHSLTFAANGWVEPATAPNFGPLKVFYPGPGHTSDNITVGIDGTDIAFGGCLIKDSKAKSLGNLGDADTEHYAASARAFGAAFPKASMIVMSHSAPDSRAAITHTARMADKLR

Structure (SMILES) | IC50 [1] | Km [2]
CCOc1ccc(S(=O)(=O)N2CCN(c3cc(Nc4ccc(C)cc4)nc(C)n3)CC2)cc1 [VNI-34] | 31.4 ± 1.2 µM | 
O=C(Nc1cccc2ccccc12)C1CCN(S(=O)(=O)c2cccc3nonc23)CC1 [VNI-41] | 29.6 ± 1.3 µM | 
Cc1cc(C)c(NC(=O)CSc2ncc3c(n2)-c2ccc(Cl)cc2N(C)S3(=O)=O)c(C)c1 [VNI-24] | 37.6 ± 0.9 µM | 
O=C(Cc1cccs1)N[C@@H]1C(=O)N2C(C(=O)O)=C(/C=C/c3ccc([N+](=O)[O-])cc3[N+](=O)[O-])CS[C@H]12 [nitrocefin] |  | 9.54 ± 0.43 µM
